Starred links: 1 amine or outer side, 2 acyl side, 3 side chain; linkers in the order of their positions; H or OH if unused. Residues, ends and D or L forms follow the SMILES beside them. *: point of attachment. C18 diacid = O=C(O)CCCCCCCCCCCCCCCCC(=O)*; γGlu = O=C(O)[C@H](CCC(=O)[*:2])N[*:1]
Columns and labels:
[1] = molecular target: T1, human amylin receptor (hAMYR3) (Homo sapiens, UniProt O60896+P30988); test: Human amylin receptor (hAMYR3) in vitro potency assay, CRE-luciferase reporter in BHK cells; assay type: cell-based; conditions: BHK hAMYR3/CRE-Luc cells, 3 hours incubation, assay buffer with 1% ovalbumin
T1 construct: host or cells: BHK (Baby Hamster Kidney), Hollex-1 cell line further transfected with RAMP3
In short: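 Luminescence from a CRE-driven luciferase reporter reflects cAMP-mediated receptor activation. Peptides were serially diluted (7 concentrations, 7-fold steps, typically starting near 10 nM) in buffer with 1% ovalbumin and applied for 3 h at 37 °C to BHK cells co-expressing calcitonin receptor (a) and RAMP3.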

[2] = molecular target: T2, human calcitonin receptor (hCTR) (Homo sapiens, UniProt P30988); test: Human calcitonin receptor (hCTR) in vitro potency assay, CRE-luciferase reporter in BHK cells; assay type: cell-based; conditions: BHK hCTR/CRE-Luc cells, 3 hours incubation, assay buffer with 1% ovalbumin; read-out: hCalcR potency, EC50
T2 construct: host or cells: BHK (Baby Hamster Kidney), Hollex-1 cell line
T2 sequence (P30988 25-474): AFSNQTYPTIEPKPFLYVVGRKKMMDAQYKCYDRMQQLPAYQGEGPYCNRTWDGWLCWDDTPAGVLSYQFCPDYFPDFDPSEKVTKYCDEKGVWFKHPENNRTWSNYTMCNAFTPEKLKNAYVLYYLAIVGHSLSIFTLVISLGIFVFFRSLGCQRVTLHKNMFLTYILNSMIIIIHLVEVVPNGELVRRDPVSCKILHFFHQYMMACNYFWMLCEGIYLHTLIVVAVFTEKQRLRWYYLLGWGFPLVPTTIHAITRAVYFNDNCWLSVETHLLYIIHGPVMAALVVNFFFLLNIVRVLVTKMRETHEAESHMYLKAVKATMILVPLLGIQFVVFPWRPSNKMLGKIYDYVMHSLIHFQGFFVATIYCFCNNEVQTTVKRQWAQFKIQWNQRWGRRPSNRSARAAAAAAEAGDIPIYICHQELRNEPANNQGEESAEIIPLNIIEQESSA
In short: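 Luciferase signal from a CRE reporter served as the cAMP read-out after 3 h, 37 °C exposure to compound. Cells were stably transfected BHK expressing hCTR, and the buffer was phenol-red-free DMEM with 10 mM HEPES and 1% ovalbumin. Compounds were tested as 7-point, 7-fold dilutions, often from about 10 nM.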

T1 sequence (O60896 24-148, one chain of several): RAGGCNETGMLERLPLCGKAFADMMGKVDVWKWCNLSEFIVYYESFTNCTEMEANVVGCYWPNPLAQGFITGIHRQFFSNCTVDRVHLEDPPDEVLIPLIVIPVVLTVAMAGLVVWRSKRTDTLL

Row | SMILES | EC50 [1] [pM] | EC50 [2] [pM]
1 | CC[C@H](C)[C@H](NC(=O)[C@H](C)NC(=O)CNC(=O)[C@H](Cc1ccccc1)NC(=O)[C@@H]1CCCN1C(=O)[C@H](CCC(=O)O)NC(=O)[C@H](CO)NC(=O)[C@H](CO)NC(=O)[C@H](Cc1c[nH]cn1)NC(=O)[C@H](Cc1c[nH]cn1)NC(=O)[C@H](CC(C)C)NC(=O)[C@H](Cc1ccccc1)NC(=O)[C@H](CCC(=O)O)NC(=O)[C@H](C)NC(=O)[C@H](CC(C)C)NC(=O)[C@H](CCCNC(=N)N)NC(=O)[C@H](CCC(N)=O)NC(=O)[C@@H](NC(=O)[C@H](CCC(N)=O)NC(=O)[C@H](C)NC(=O)[C@@H](NC(=O)[C@H](CO)NC(=O)[C@H](CC(C)C)NC(=O)[C@H](Cc1c[nH]cn1)NC(=O)[C@H](CO)NC(=O)[C@H](C)NC(=O)CC[C@H](NC(=O)CCCCCCCCCCCCCCCCC(=O)O)C(=O)O)[C@@H](C)O)[C@@H](C)O)C(=O)N1CCC[C@H]1C(=O)N[C@@H](CO)C(=O)N[C@@H](CO)C(=O)N[C@H](C(=O)N[C@@H](CCC(=O)O)C(=O)N[C@H](C(=O)NCC(=O)N1CCC[C@H]1C(=O)N[C@@H](CCC(=O)O)C(=O)N[C@H](C(=O)N1CCC[C@H]1C(N)=O)[C@@H](C)O)C(C)C)[C@@H](C)O [Compound 27, N^1-[(4S)-4-carboxy-4-(17-carboxyheptadecanoylamino)butanoyl]-[Ala1,Ser2,His3,Leu4,Ser5,Ala7,Gln8,Glu14,His17,Glu21,Pro22,Pro27,Glu31,Pro34,Glu35,Pro37]-human amylin] ({C18 diacid-γGlu}-ASHLSTAQTQRLAEFLHHSSEPFGAIPSSTEVGPETP-NH2) | 2.68 | 1.78
2 | CC[C@H](C)[C@H](NC(=O)[C@@H]1CCCN1C(=O)CNC(=O)[C@H](Cc1ccccc1)NC(=O)[C@H](Cc1c[nH]cn1)NC(=O)[C@H](Cc1c[nH]cn1)NC(=O)[C@H](CC(C)C)NC(=O)[C@H](Cc1ccccc1)NC(=O)[C@H](CCC(=O)O)NC(=O)[C@H](C)NC(=O)[C@H](CC(C)C)NC(=O)[C@H](CCCNC(=N)N)NC(=O)[C@H](CCC(N)=O)NC(=O)[C@@H](NC(=O)[C@H](CCC(N)=O)NC(=O)[C@H](C)NC(=O)[C@@H](NC(=O)[C@H](CO)NC(=O)[C@H](CC(C)C)NC(=O)[C@H](Cc1c[nH]cn1)NC(=O)[C@H](CO)NC(=O)[C@H](C)NC(=O)CC[C@H](NC(=O)CCCCCCCCCCCCCCCCC(=O)O)C(=O)O)[C@@H](C)O)[C@@H](C)O)C(=O)N[C@@H](CC(C)C)C(=O)N1CCC[C@H]1C(=O)N1CCC[C@H]1C(=O)N[C@H](C(=O)N[C@@H](CC(=O)O)C(=O)N[C@H](C(=O)NCC(=O)N[C@@H](CO)C(=O)N[C@@H](CCC(=O)O)C(=O)N[C@H](C(=O)N1CCC[C@H]1C(N)=O)[C@@H](C)O)C(C)C)[C@@H](C)O [Compound 28, N^1-[(4S)-4-carboxy-4-(17-carboxyheptadecanoylamino)butanoyl]-[Ala1,Ser2,His3,Leu4,Ser5,Ala7,Gln8,Glu14,His17,Pro25,Pro28,Pro29,Asp31,Glu35,Pro37],des-(19-22)-human amylin] ({C18 diacid-γGlu}-ASHLSTAQTQRLAEFLHHFGPILPPTDVGSETP-NH2) | 2.06 | 1.72
3 | CC[C@H](C)[C@H](NC(=O)[C@@H]1CCCN1C(=O)CNC(=O)[C@H](Cc1ccccc1)NC(=O)[C@H](Cc1c[nH]cn1)NC(=O)[C@H](Cc1c[nH]cn1)NC(=O)[C@H](CC(C)C)NC(=O)[C@H](Cc1ccccc1)NC(=O)[C@H](CCC(=O)O)NC(=O)[C@H](C)NC(=O)[C@H](CC(C)C)NC(=O)[C@H](CCCNC(=N)N)NC(=O)[C@H](CCC(N)=O)NC(=O)[C@@H](NC(=O)[C@H](CCC(N)=O)NC(=O)[C@H](C)NC(=O)[C@@H](NC(=O)[C@H](CO)NC(=O)[C@H](CC(C)C)NC(=O)[C@H](CCC(=O)O)NC(=O)[C@H](CO)NC(=O)[C@H](C)NC(=O)CC[C@H](NC(=O)CCCCCCCCCCCCCCCCC(=O)O)C(=O)O)[C@@H](C)O)[C@@H](C)O)C(=O)N[C@@H](CC(C)C)C(=O)N1CCC[C@H]1C(=O)N1CCC[C@H]1C(=O)N[C@H](C(=O)N[C@@H](CC(=O)O)C(=O)N[C@H](C(=O)NCC(=O)N[C@@H](CO)C(=O)N[C@@H](CCC(=O)O)C(=O)N[C@H](C(=O)N1CCC[C@H]1C(N)=O)[C@@H](C)O)C(C)C)[C@@H](C)O [Compound 29, N^1-[(4S)-4-carboxy-4-(17-carboxyheptadecanoylamino)butanoyl]-[Ala1,Ser2,Glu3,Leu4,Ser5,Ala7,Gln8,Glu14,His17,Pro25,Pro28,Pro29,Asp31,Glu35,Pro37],des-(19-22)-human amylin] ({C18 diacid-γGlu}-ASELSTAQTQRLAEFLHHFGPILPPTDVGSETP-NH2) | 5.2 | 3.08

The next lines start with the values.

Row | EC50 [1] [pM] | EC50 [2] [pM] | SMILES
4 | 2.37 | 2.07 | CC[C@H](C)[C@H](NC(=O)[C@@H]1CCCN1C(=O)CNC(=O)[C@H](Cc1ccccc1)NC(=O)[C@H](Cc1c[nH]cn1)NC(=O)[C@H](Cc1c[nH]cn1)NC(=O)[C@H](CC(C)C)NC(=O)[C@H](Cc1ccccc1)NC(=O)[C@H](CCC(=O)O)NC(=O)[C@H](C)NC(=O)[C@H](CC(C)C)NC(=O)[C@H](CCCNC(=N)N)NC(=O)[C@H](CCC(N)=O)NC(=O)[C@@H](NC(=O)[C@H](CCC(N)=O)NC(=O)[C@H](C)NC(=O)[C@@H](NC(=O)[C@H](CO)NC(=O)[C@H](CC(C)C)NC(=O)[C@H](CO)NC(=O)CNC(=O)[C@H](C)NC(=O)CC[C@H](NC(=O)CC[C@H](NC(=O)CCCCCCCCCCCCCCCCC(=O)O)C(=O)O)C(=O)O)[C@@H](C)O)[C@@H](C)O)C(=O)N[C@@H](CC(C)C)C(=O)N1CCC[C@H]1C(=O)N1CCC[C@H]1C(=O)N[C@H](C(=O)N[C@@H](CC(=O)O)C(=O)N[C@H](C(=O)NCC(=O)N[C@@H](CO)C(=O)N[C@@H](CCC(=O)O)C(=O)N[C@H](C(=O)N1CCC[C@H]1C(N)=O)[C@@H](C)O)C(C)C)[C@@H](C)O [Compound 30, N^1-[(4S)-4-carboxy-4-[[(4S)-4-carboxy-4-(17-carboxyheptadecanoylamino)butanoyl]amino]butanoyl]-[Ala1,Gly2,Ser3,Leu4,Ser5,Ala7,Gln8,Glu14,His17,Pro25,Pro28,Pro29,Asp31,Glu35,Pro37],des-(19-22)-human amylin] ({C18 diacid-γGlu-γGlu}-AGSLSTAQTQRLAEFLHHFGPILPPTDVGSETP-NH2)
5 | 2.03 | 2.13 | CC[C@H](C)[C@H](NC(=O)[C@@H]1CCCN1C(=O)CNC(=O)[C@H](Cc1ccccc1)NC(=O)[C@H](Cc1c[nH]cn1)NC(=O)[C@H](Cc1c[nH]cn1)NC(=O)[C@H](CC(C)C)NC(=O)[C@H](Cc1ccccc1)NC(=O)[C@H](CCC(=O)O)NC(=O)[C@H](C)NC(=O)[C@H](CC(C)C)NC(=O)[C@H](CCCNC(=N)N)NC(=O)[C@H](CCC(N)=O)NC(=O)[C@@H](NC(=O)[C@H](CCC(N)=O)NC(=O)[C@H](C)NC(=O)[C@@H](NC(=O)[C@H](CO)NC(=O)[C@H](CC(C)C)NC(=O)[C@H](Cc1c[nH]cn1)NC(=O)[C@H](CO)NC(=O)[C@H](C)NC(=O)CC[C@H](NC(=O)CC[C@H](NC(=O)CCCCCCCCCCCCCCCCC(=O)O)C(=O)O)C(=O)O)[C@@H](C)O)[C@@H](C)O)C(=O)N[C@@H](CC(C)C)C(=O)N1CCC[C@H]1C(=O)N1CCC[C@H]1C(=O)N[C@H](C(=O)N[C@@H](CC(=O)O)C(=O)N[C@H](C(=O)NCC(=O)N[C@@H](CO)C(=O)N[C@@H](CCC(=O)O)C(=O)N[C@H](C(=O)N1CCC[C@H]1C(N)=O)[C@@H](C)O)C(C)C)[C@@H](C)O [Compound 31, N^1-[(4S)-4-carboxy-4-[[(4S)-4-carboxy-4-(17-carboxyheptadecanoylamino)butanoyl]amino]butanoyl]-[Ala1,Ser2,His3,Leu4,Ser5,Ala7,Gln8,Glu14,His17,Pro25,Pro28,Pro29,Asp31,Glu35,Pro37],des-(19-22)-human amylin] ({C18 diacid-γGlu-γGlu}-ASHLSTAQTQRLAEFLHHFGPILPPTDVGSETP-NH2)
